According to patent US10428114B2, “Type polypeptide targeting tumours” (SICHUAN UNIVERSITY, priority 2015, dated 2019):
≈ marks a conversion by molar mass, not a printed value. Bridges are numbered along the chain shown (N, C = ends). Where no end group is shown, it is not given here. [ ]: non-standard residue; d: D form. GABA = NCCCC(=O)O

Assays:
4T1 tumours [1] = assay: Pharmacodynamics of doxorubicin and its liposomes in 4T1 tumour model; format: in vivo, Balb/c mice; settings: day 20
Experimental: (§3) Female Balb/c mice were inoculated with 5×10^5 4 T1 cells and randomly divided into 7 groups: saline group (NS), Dox group, PEG-Lipo-Dox group, iRGD-Lipo-Dox group, nRGD-Lipo-Dox group, Dox and nRGD coadministration group (Dox+nRGD), PEGylated liposome and nRGD coadministration group (PEG-Lipo-Dox+nRGD). The mice were injected with 5 mg/kg Dox equivalents of drugs or various formulations on day 8 and day 12. The single dose of the coadministration group included two shoots; one shoot was an equivalent drug or formulation of 5 mg/kg Dox, while the other shoot was 4.8 mg/kg nRGD. The volume and body weight of the mice were measured every two days. Some mice were sacrificed for mechanism and toxicity study on day 20. The average tumour growth inhibition (TGI) was calculated after tumour weighing: TGI=(1−(mean tumour weight of treatment group/(average tumour weight of control group))×100%. The antitumour effect and mechanism were studied by HE, immunohistochemistry, RT-PCR, immunofluorescence and ELISA. Plasma samples were collected for ELISA detection. Tissue samples were evaluated for toxicity by HE staining. The remaining mice were studied for survival time.

Raw 264.7 cells = assay: Median lethal dose (IC50) against Raw 264.7 cells at 24 h; format: cell-based
From the text: (§1) The targeting ability of nRGD was studied through in vitro and in vivo experiments by the inventors.

HUVEC = assay: Median lethal dose (IC50) against HUVEC at 24 h; format: cell-based; settings: n = 3
From the text: as §1

4T1 cells = assay: Median lethal dose (IC50) against 4T1 cells at 24 h; format: cell-based
From the text: as §1

[2] = system: tumour vessels and tumour-associated macrophages (TAMs); assay: In vivo targeting and tumour microenvironment study in 4T1 tumours (immunofluorescence, immunohistochemistry, RT-PCR, ELISA); set-up: species or system Balb/c mice
Experimental: as §3

4T1 tumours [3] = assay: Evaluation of 4Abu linked RGD-AAN peptides with doxorubicin, 4T1 model; format: in vivo, Balb/c mice; settings: doxorubicin 5 mg/kg with peptide
Experimental: (§2) The dose of doxorubicin was 5 mg/kg for all groups. Two groups were administrated with above-mentioned peptides, respectively.

4T1 tumours [4] = assay: Evaluation of peptide-bond linked RGD-AAN peptides with doxorubicin, 4T1 model; format: in vivo, Balb/c mice; settings: doxorubicin 5 mg/kg with peptide
Experimental: as §2

[5] = system: CoCl2-treated 4T1 and M2 type macrophages, HUVEC, untreated 4T1 cells; assay: Cell uptake experiments; format: cell-based; settings: HUVEC with low legumain expression and untreated 4T1 cells
From the text: as §1

4T1 tumours [6] = assay: Pharmacodynamics of paclitaxel and its albumin nanoparticles with nRGD, 4T1 tumour model; format: in vivo
Experimental: The mice were injected with 10 mg/kg PTX equivalents of drugs or various formulations on day 8, day 12 and day 16.

4T1 tumours [7] = assay: Pharmacological effects of lycobetaine and its nanostructured lipid carriers with nRGD, 4T1 tumour model; format: in vivo
Experimental: Normal saline group (N. S), IBT group, lycobetaine nanostructured lipid carriers group (IBT-NLC), lycobetaine and nRGD coadministration group (IBT+nRGD), and lycobetaine nanostructured lipid carriers and nRGD coadministration group (IBT-NLC+nRGD). The mice were injected with 12 mg/kg IBT equivalents of drugs or various formulations on day 8, day 9 and day 10.

4T1 tumours [8] = assay: Pharmacological effects of docetaxel and its micells with nRGD, 4T1 tumour model; format: in vivo
Experimental: Female Balb/c mice were inoculated with 5×10^5 4T1 cells and randomly divided into 5 groups: normal saline group (N. S), TXT group, docetaxel micells group (TXT-micells), docetaxel and nRGD coadministration group (TXT+nRGD), and docetaxel micells and nRGD coadministration group (TXT-micells+nRGD). The mice were injected with 15 mg/kg TXT equivalents of drugs or various formulations on day 8, day 10 and day 12.

glioma = assay: Glioma model survival; format: in vivo, mice; settings: lycobetaine and octreotide liposomes, peptide as a mixture or on the liposome surface
From the text: Mice having glioma were randomly divided into 9 groups, 20 mice each: normal saline group (N.S), teniposide group, free lycobetaine and octreotide group (free IBT & OCT), lycobetaine and octreotide PEGylated liposomes group (PEG-Liposome), liposomes and iRGD coadministration group (PEG-Liposome+iRGD), liposomes and nRGD coadministration group (PEG-Liposome+nRGD), iRGD modified lycobetaine and octreotide PEGylated liposomes (iRGD-Liposome), nRGD modified lycobetaine and octreotide PEGylated liposomes (nRGD-Liposome), liposomes and nRGD coadministration group (blank). The mice were injected with 10 mg/kg IBT and […] OCT equivalents of drugs or various formulations on day 5, day 7, day 9, day 11 and day 12. As positive control group, mice were injected with 10 mg/kg teniposide on day 5, day 7, day 9, day 11 and day 12. […] The survival of the mice was recorded daily and the survival curve was plotted.

4T1 tumours [9] = assay: Screening of the administration manner of nRGD with doxorubicin, 4T1 model; format: in vivo, Balb/c mice; settings: nRGD in combination with, prior to or after doxorubicin
Experimental: Female Balb/c mice were inoculated with 5×10^5 4 T1 cells and randomly divided into 3 groups. nRGD was administered in combination with doxorubicin, nRGD was administered prior to doxorubicin or after doxorubicin.

4T1 tumours [10] = assay: Screening of the working concentration of nRGD with doxorubicin, 4T1 model; format: in vivo, Balb/c mice; settings: doxorubicin 5 mg/kg; nRGD 1, 2, 4, 8, 10 mg/kg
Experimental: The dose of doxorubicin was 5 mg/kg, while the nRGD concentration was 1, 2, 4, 8, 10 mg/kg, respectively.

[11] = mouse, in vivo
legumain = molecular target: T1, legumain (UniProt O89017 18-325, limits assumed); assay: cell-based or functional assay
T1 sequence (looked up): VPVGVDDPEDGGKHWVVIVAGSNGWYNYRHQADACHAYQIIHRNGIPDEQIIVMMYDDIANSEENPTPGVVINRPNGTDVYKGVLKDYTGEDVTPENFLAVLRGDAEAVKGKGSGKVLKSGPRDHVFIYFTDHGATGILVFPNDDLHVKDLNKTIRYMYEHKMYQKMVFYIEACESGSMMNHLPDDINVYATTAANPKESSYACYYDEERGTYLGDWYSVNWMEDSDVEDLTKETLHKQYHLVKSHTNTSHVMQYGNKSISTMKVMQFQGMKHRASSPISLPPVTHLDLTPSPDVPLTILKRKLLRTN

COc1cccc2c1C(=O)c1c(O)c3c(c(O)c1C2=O)C[C@@](O)(C(=O)CO)C[C@@H]3O[C@H]1C[C@H](N)[C@H](O)[C@H](C)O1 [Dox, doxorubicin]
tumour weight (4T1 tumours [1]; 5 mg/kg Dox equivalents on day 8 and day 12, coadministration with 4.8 mg/kg nRGD): 1592.0 ± 98.0 mg
tumour growth inhibition rate (TGI) (4T1 tumours [1]; from tumour weight versus control group): 26.3%
IC50 Dox, Raw264.7 IL-4 (Raw 264.7 cells; n = 3, IL-4 stimulated): 0.36 ± 0.07 µg/mL (≈ 0.662 µM)
IC50 Dox, Raw264.7 LPS (Raw 264.7 cells; n = 3, LPS stimulated): 0.81 ± 0.22 µg/mL (≈ 1.49 µM)
IC50 Dox, Raw264.7 Control (Raw 264.7 cells; n = 3, untreated cells): 0.41 ± 0.08 µg/mL (≈ 0.754 µM)
IC50 Dox, HUVEC (HUVEC): 18.12 ± 6.13 µg/mL (≈ 33.3 µM)
IC50 Dox, 4T1 CoCl2 (4T1 cells; n = 3, CoCl2 stimulated): 16.54 ± 2.57 µg/mL (≈ 30.4 µM)
IC50 Dox, 4T1 control (4T1 cells; n = 3, untreated cells): 26.56 ± 1.96 µg/mL (≈ 48.9 µM)
number of regulatory T cells and MDSCs at the tumour sites ([2]; mouse, in vivo): increased

CRGD-4Abu-NAA (CRGD[GABA]NAA)
efficacy of doxorubicin (4T1 tumours [3]): can improve the efficacy of doxorubicin

CRGDNAA (not fully specified (residue 4))
efficacy of doxorubicin (4T1 tumours [4]): can improve the efficacy of doxorubicin

CCRGDK(NAA)GPDC (CCRGDKGPDC) [nRGD]
cell uptake [5]: significantly reduced compared to iRGD
accumulation of Dox in the tumour site ([2]; tumour sections): increased the accumulation of Dox in the tumour site
anti-tumour efficacy (4T1 tumours [6]; 10 mg/kg PTX equivalents day 8, 12, 16 with 4.8 mg/kg nRGD): increased the anti-tumour efficacy of PTX and PTX-BSA
body weight and toxicity (4T1 tumours [6]; mouse, in vivo): did not reduce the body weight of the mice or increase the toxicity
anti-tumour efficacy (4T1 tumours [7]; 12 mg/kg IBT equivalents day 8, 9, 10 with 4.8 mg/kg nRGD): increased the anti-tumour efficacy of PTX and PTX-BSA
body weight and toxicity (4T1 tumours [7]; mouse, in vivo): did not reduce the body weight of the mice or increase the toxicity
anti-tumour efficacy (4T1 tumours [8]; 15 mg/kg TXT equivalents day 8, 10, 12 with 4.8 mg/kg nRGD): increased the anti-tumour efficacy of TXT and TXT-micells
body weight and toxicity (4T1 tumours [8]; mouse, in vivo): did not reduce the body weight of the mice or increase the toxicity
life period (glioma): longer life period than the iRGD group
anti-tumour effects of different manners of administration (4T1 tumours [9]): no significant differences
Dox antitumour efficacy versus nRGD concentration (4T1 tumours [10]): positively correlated with Dox antitumour efficacy
weight of mice [11]: did not reduce the weight of mice

c(RGDfK)-4Abu-AAN (cyclo(RGD[dF]K[GABA]AAN); not fully specified)
efficacy of doxorubicin (4T1 tumours [3]): can improve the efficacy of doxorubicin

c(RGDfK)AAN (cyclo(RGD[dF]KAAN); also: attachment point of AAN on cyclic RGDfK not given here)
efficacy of doxorubicin (4T1 tumours [4]): can improve the efficacy of doxorubicin

B1: nRGD polypeptide CCRGDK(NAA)GPDC, coupled to the surface of doxorubicin liposomes (nRGD-Lipo-Dox) (peptide)
peptide: CCRGDKGPDC
modifications: disulfide 2-10; not fully specified (residue 6); printed as CCRGDK(NAA)GPDC; also: coupled to Mal-PEG2000-DSPE liposome via cysteine
Median lethal dose (IC50) of Dox, 4T1 cells stimulated with CoCl2, 24 h (legumain): 37.9 µg/mL
Median lethal dose (IC50) of Dox, Raw264.7 cells stimulated with IL-4, 24 h (legumain): 23.5 µg/mL
